Assay results reported in ChEMBL document CHEMBL1201862, “PubChem BioAssay data set” (2004).
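Following 48 hours of exposure in 96-well plates, responses at five concentrations were used to interpolate endpoints linearly. The concentration for 50% growth inhibition is given as GI50.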 Active and inactive are the calls of the source. Rule as the data show it: active = GI50 up to about 1.1 µM and inactive = higher. Square brackets hold non-standard residues; d marks the D form. Peptide text beside a SMILES is read from it. pGlu = O=C1CC[C@@H](C(=O)O)N1; Thz = O=C(O)[C@@H]1CSCN1

Tests used:
Experiment in all cases: NCI anticancer screen, dose series, 48 h
RPMI-8226 = tested on: RPMI-8226
SF-295 = tested on: SF-295
HCC 2998 = tested on: HCC 2998
NCI/ADR-RES = tested on: NCI/ADR-RES
HOP-62 = tested on: HOP-62
MOLT-4 = tested on: MOLT-4
MDA-N = tested on: MDA-N
SF-268 = tested on: SF-268
786-0 = tested on: 786-0
CCRF-CEM = tested on: CCRF-CEM
MDA-MB-231 = tested on: MDA-MB-231
HT-29 = tested on: HT-29
A549 = tested on: A549
SNB-19 = tested on: SNB-19
UACC-257 = tested on: UACC-257
LOX IMVI = tested on: LOX IMVI
SK-OV-3 = tested on: SK-OV-3
T47D = tested on: T47D
TK-10 = tested on: TK-10
PC-3 = tested on: PC-3
SN12C = tested on: SN12C
K562 = tested on: K562
HL-60 = tested on: HL-60
NCI-H522 = tested on: NCI-H522
SR = tested on: SR
BT-549 = tested on: BT-549
IGROV-1 = tested on: IGROV-1
MDA-MB-435 = tested on: MDA-MB-435
HCT-15 = tested on: HCT-15
OVCAR-8 = tested on: OVCAR-8
SK-MEL-5 = tested on: SK-MEL-5
Hs-578T = tested on: Hs-578T
UACC-62 = tested on: UACC-62
Malme-3M = tested on: Malme-3M
SF-539 = tested on: SF-539
CAKI-1 = tested on: CAKI-1
DU-145 = tested on: DU-145
M14 = tested on: M14
OVCAR-3 = tested on: OVCAR-3
A498 = tested on: A498
ACHN = tested on: ACHN
NCI-H226 = tested on: NCI-H226
MCF7 = tested on: MCF7
UO-31 = tested on: UO-31
NCI-H460 = tested on: NCI-H460
RXF 393 = tested on: RXF 393
SK-MEL-28 = tested on: SK-MEL-28
NCI-H23 = tested on: NCI-H23
SK-MEL-2 = tested on: SK-MEL-2
SW-620 = tested on: SW-620
SNB-75 = tested on: SNB-75
KM12 = tested on: KM12
OVCAR-5 = tested on: OVCAR-5
U-251 = tested on: U-251
OVCAR-4 = tested on: OVCAR-4
EKVX = tested on: EKVX
COLO 205 = tested on: COLO 205
HCT-116 = tested on: HCT-116
HOP-92 = tested on: HOP-92

Measured: GI50

O=C1CC[C@@H](C(=O)N2CSC[C@H]2C(=O)O)N1 [PIDOTIMOD] ([pGlu]-[Thz]-OH)
inactive: RPMI-8226 > 100 µM | SF-295 > 100 µM | HCC 2998 > 100 µM | NCI/ADR-RES > 100 µM | HOP-62 > 100 µM | MOLT-4 > 100 µM | MDA-N > 100 µM | SF-268 > 100 µM | 786-0 > 100 µM | CCRF-CEM > 100 µM | MDA-MB-231 > 100 µM | HT-29 > 100 µM | A549 > 100 µM | SNB-19 > 100 µM | UACC-257 > 100 µM | LOX IMVI > 100 µM | SK-OV-3 > 100 µM | T47D > 100 µM | TK-10 > 100 µM | PC-3 > 100 µM | SN12C > 100 µM | K562 > 100 µM | HL-60 > 100 µM | NCI-H522 > 100 µM | SR > 100 µM | BT-549 > 100 µM | IGROV-1 > 100 µM | MDA-MB-435 > 100 µM | OVCAR-8 > 100 µM | SK-MEL-5 > 100 µM | Hs-578T > 100 µM | UACC-62 > 100 µM | Malme-3M > 100 µM | SF-539 > 100 µM | CAKI-1 > 100 µM | DU-145 > 100 µM | M14 > 100 µM | OVCAR-3 > 100 µM | A498 > 100 µM | ACHN > 100 µM | NCI-H226 > 100 µM | MCF7 > 100 µM | UO-31 > 100 µM | NCI-H460 > 100 µM | RXF 393 > 100 µM | SK-MEL-28 > 100 µM | NCI-H23 > 100 µM | SK-MEL-2 > 100 µM | SW-620 > 100 µM | SNB-75 > 100 µM | KM12 > 100 µM | OVCAR-5 > 100 µM
> 100 µM: HCT-15

COc1ccc(/C=C(/C#N)C(N)=O)cc1OC
inactive: RPMI-8226 > 100 µM | SF-295 > 100 µM | NCI/ADR-RES > 100 µM | HOP-62 > 100 µM | MOLT-4 > 100 µM | MDA-N > 100 µM | SF-268 > 100 µM | U-251 > 100 µM | 786-0 > 100 µM | CCRF-CEM 42.1 µM | MDA-MB-231 > 100 µM | HT-29 > 100 µM | A549 > 100 µM | SNB-19 > 100 µM | UACC-257 > 100 µM | LOX IMVI > 100 µM | SK-OV-3 > 100 µM | T47D > 100 µM | TK-10 > 100 µM | PC-3 > 100 µM | SN12C > 100 µM | OVCAR-4 > 100 µM | K562 > 100 µM | HL-60 > 100 µM | NCI-H522 > 100 µM | SR > 100 µM | BT-549 > 100 µM | EKVX > 100 µM | IGROV-1 > 100 µM | MDA-MB-435 > 100 µM | OVCAR-8 > 100 µM | SK-MEL-5 > 100 µM | Hs-578T > 100 µM | UACC-62 > 100 µM | Malme-3M > 100 µM | SF-539 > 100 µM | CAKI-1 > 100 µM | DU-145 > 100 µM | M14 > 100 µM | COLO 205 > 100 µM | OVCAR-3 > 100 µM | A498 72.6 µM | ACHN > 100 µM | NCI-H226 > 100 µM | MCF7 > 100 µM | NCI-H460 > 100 µM | HCT-116 > 100 µM | RXF 393 > 100 µM | SK-MEL-28 > 100 µM | NCI-H23 > 100 µM | SK-MEL-2 > 100 µM | HOP-92 > 100 µM | SW-620 > 100 µM | SNB-75 > 100 µM | KM12 > 100 µM | OVCAR-5 > 100 µM
> 100 µM: HCT-15
